US9932331B2, “Phenyl tetrahydroisoquinoline compound substituted with heteroaryl” (TAISHO PHARMACEUTICAL CO., LTD, priority 2014, dated 2018)
Counter-ions that a name gives are not always drawn.

Tests used:
human NHE3 = molecular target: T1, human NHE3 (Homo sapiens, UniProt P48764); test: NHE3 inhibition test (recovery of intracellular pH in cell line stably expressing human NHE3); format: cell-based; details: OK cells deficient in endogenous NHE stably expressing human NHE3; BCECF fluorescence, initial rate of pH recovery; read-out: human NHE3 inhibitory activity IC50
T1 sequence (P48764 26-834): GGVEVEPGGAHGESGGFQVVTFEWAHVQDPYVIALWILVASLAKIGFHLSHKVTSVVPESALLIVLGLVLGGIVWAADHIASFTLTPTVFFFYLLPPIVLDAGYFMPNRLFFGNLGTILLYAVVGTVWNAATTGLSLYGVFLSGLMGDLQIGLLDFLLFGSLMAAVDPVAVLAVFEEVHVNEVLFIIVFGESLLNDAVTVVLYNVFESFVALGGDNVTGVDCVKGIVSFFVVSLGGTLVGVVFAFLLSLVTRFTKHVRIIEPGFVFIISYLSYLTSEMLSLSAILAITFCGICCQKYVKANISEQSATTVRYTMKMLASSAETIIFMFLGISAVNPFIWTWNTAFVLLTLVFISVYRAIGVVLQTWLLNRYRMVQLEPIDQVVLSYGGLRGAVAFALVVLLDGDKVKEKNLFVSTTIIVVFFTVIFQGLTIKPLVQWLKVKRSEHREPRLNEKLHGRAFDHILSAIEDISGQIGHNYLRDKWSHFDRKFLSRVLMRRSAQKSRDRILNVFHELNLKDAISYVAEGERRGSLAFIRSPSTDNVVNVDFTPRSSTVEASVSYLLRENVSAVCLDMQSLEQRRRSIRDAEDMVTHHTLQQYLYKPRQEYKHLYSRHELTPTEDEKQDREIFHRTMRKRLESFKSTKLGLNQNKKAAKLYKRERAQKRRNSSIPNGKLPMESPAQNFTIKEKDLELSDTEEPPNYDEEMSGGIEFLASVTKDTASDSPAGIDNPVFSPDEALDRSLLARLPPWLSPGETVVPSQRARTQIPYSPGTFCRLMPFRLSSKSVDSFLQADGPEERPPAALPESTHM
Procedure, shortened: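 Opossum kidney cells lacking endogenous NHE, stably expressing human NHE3, loaded with BCECF-AM and acid-loaded by NH4Cl washout. Compound in Na-free buffer, then Na-containing buffer (pH 7.4) added; initial pH-recovery rate by BCECF fluorescence, IC50 versus no-compound recovery.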

SD rat = test: 32P-phosphate oral loading test using SD rat (phosphorus absorption inhibitory effect); format: in vivo; details: Rattus norvegicus, 0.5 h; SD male rats, oral dose 3 mg/kg; plasma radioactivity 30 minutes after 32P-phosphate solution, vs control group; read-out: Rate of inhibition of phosphate absorption
Procedure: Phosphorus Absorption Inhibitory Effect of the Compound of the Present Invention in ^32P-Phosphate Oral Loading Test Using SD Rat
8-week-old SD male rats (Japan SLC, Inc.) were used as laboratory animals. Each test compound was suspended or dissolved at a concentration of 0.2 mg/mL or 0.6 mg/mL in Japanese Pharmacopoeia water for injection (manufactured by Hikari Pharmaceutical Co., Ltd.) and orally administered to each rat at a dose of 5 ml/kg body weight. Japanese Pharmacopoeia water for injection was administered at the same dose as above to a control group. 5 minutes after the administration of the test compound or water for injection, a phosphate solution (1.3 mM NaH2PO4) containing 32P-phosphate (PerkinElmer Inc.) was administered thereto at a dose of 5 ml/kg. 30 minutes after the administration of the phosphate solution, blood was collected from the tail vein, and the blood sample was immediately mixed with EDTA-2K (manufactured by Dojindo Laboratories). Then, the mixture was centrifuged at 3000 rpm at 4° C. for 10 minutes to recover plasma.
The radioactivity in 100 μL of the plasma was measured using a liquid scintillation counter and used as a phosphate absorption count. The radioactivity in the plasma of the control group was used as a control, and the rate of inhibition of phosphate absorption was determined according to the following expression: Rate of inhibition of phosphate absorption (%)=(1−Phosphate absorption count of the test compound administration group/Phosphate absorption count of the control group)×100 (2) Results

Row | IC50 (human NHE3) | Structure (SMILES) | inhibition in vivo at 3 mg/kg (SD rat)
1 | 16.6 nM | CN1Cc2c(Cl)cc(Cl)cc2[C@H](c2cccc(-c3cc(NCCOCCOCCOCCNC(=O)Nc4ccc(NC(=O)NCCOCCOCCOCCNc5cc(-c6cccc([C@@H]7CN(C)Cc8c(Cl)cc(Cl)cc87)c6)ncn5)cc4)ncn3)c2)C1 [Example 7-16, 1,1′-Benzene-1,4-diylbis(3-{2-[2-(2-{2-[(6-{3-[(4S)-6,8-dichloro-2-methyl-1,2,3,4-tetrahydroisoquinolin-4-yl]phenyl}pyrimidin-4-yl)amino]ethoxy}ethoxy)ethoxy]ethyl}urea) hydrochloride] | 34%
2 | 5.6 nM | CN1Cc2c(Cl)cc(Cl)cc2[C@H](c2cccc(-c3ccc(C(=O)NCCOCCOCCNC(=O)NCCCCNC(=O)NCCOCCOCCNC(=O)c4ccc(-c5cccc([C@@H]6CN(C)Cc7c(Cl)cc(Cl)cc76)c5)cn4)nc3)c2)C1 [Example 7-18, N,N′-(10,17-Dioxo-3,6,21,24-tetraoxa-9,11,16,18-tetraazahexacosane-1,26-diyl)bis(5-{3-[(4S)-6,8-dichloro-2-methyl-1,2,3,4-tetrahydroisoquinolin-4-yl]phenyl}pyridine-2-carboxamide) hydrochloride] | 49%
3 | 17.7 nM | CN1Cc2c(Cl)cc(Cl)cc2[C@H](c2cccc(-c3cc(NCCOCCOCCOCCNC(=O)NCCCCNC(=O)NCCOCCOCCOCCNc4cnnc(-c5cccc([C@@H]6CN(C)Cc7c(Cl)cc(Cl)cc76)c5)c4)cnn3)c2)C1 [Example 7-19, 1,1′-Butane-1,4-diylbis(3-{2-[2-(2-{2-[(6-{3-[(4S)-6,8-dichloro-2-methyl-1,2,3,4-tetrahydroisoquinolin-4-yl]phenyl}pyridazin-4-yl)amino]ethoxy}ethoxy)ethoxy]ethyl}urea) hexahydrochloride] | 19%
4 | 5.6 nM | CN1Cc2c(Cl)cc(Cl)cc2[C@H](c2cccc(-c3cn(CCOCCOCCOCCNC(=O)Nc4ccc(NC(=O)NCCOCCOCCOCCn5cc(-c6cccc([C@@H]7CN(C)Cc8c(Cl)cc(Cl)cc87)c6)nn5)cc4)nn3)c2)C1 [Example 7-24, 1,1′-Benzene-1,4-diylbis{3-[2-(2-{2-[2-(4-{3-[(4S)-6,8-dichloro-2-methyl-1,2,3,4-tetrahydroisoquinolin-4-yl]phenyl}-1H-1,2,3-triazol-1-yl)ethoxy]ethoxy}ethoxy)ethyl]urea}hydrochloride] | 31%
5 | 6.9 nM | CN1Cc2c(Cl)cc(Cl)cc2[C@H](c2cccc(-c3nnn(CCOCCOCCOCCOCCNC(=O)NCCCCNC(=O)NCCOCCOCCOCCOCCn4nnc(-c5cccc([C@@H]6CN(C)Cc7c(Cl)cc(Cl)cc76)c5)n4)n3)c2)C1 [Example 7-29, 1,1′-Butane-1,4-diylbis {3-[14-(5-{3-[(4S)-6,8-dichloro-2-methyl-1,2,3,4-tetrahydroisoquinolin-4-yl]phenyl}-2H-tetrazol-2-yl)-3,6,9,12-tetraoxatetradec-1-yl]urea}hydrochloride] | 10%
6 | 2.8 nM | CN1Cc2c(Cl)cc(Cl)cc2[C@H](c2cccc(-c3nnn(CCOCCOCCOCCNC(=O)NCCCCNC(=O)NCCOCCOCCOCCn4nnc(-c5cccc([C@@H]6CN(C)Cc7c(Cl)cc(Cl)cc76)c5)n4)n3)c2)C1 [Example 7-30, 1,1′-Butane-1,4-diylbis {3-[2-(2-{2-[2-(5-{3-[(4S)-6,8-dichloro-2-methyl-1,2,3,4-tetrahydroisoquinolin-4-yl]phenyl}-2H-tetrazol-2-yl)ethoxy]ethoxy}ethoxy)ethyl]urea}hydrochloride] | 28%
7 | 8.6 nM | CN1Cc2c(Cl)cc(Cl)cc2[C@H](c2cccc(-c3cncc(NCCOCCOCCOCCNC(=O)NCCCCNC(=O)NCCOCCOCCOCCNc4cncc(-c5cccc([C@@H]6CN(C)Cc7c(Cl)cc(Cl)cc76)c5)n4)n3)c2)C1 [Example 7-33, 1,1′-Butane-1,4-diylbis(3-{2-[2-(2-{2-[(6-{3-[(4S)-6,8-dichloro-2-methyl-1,2,3,4-tetrahydroisoquinolin-4-yl]phenyl}pyrazin-2-yl)amino]ethoxy}ethoxy)ethoxy]ethyl}urea) hexahydrochloride] | -1%
